Test results taken from PubChem BioAssay AID220 (DTP/NCI, 2004).
Values joined by “and” are separate entries in the source; they are usually repeats but may differ in a detail not shown here. Equal values may be shown once. Results filed as inconclusive are left out.

Tested on: CD8F1 mice, subcutaneous mammary adenocarcinoma, T/C%
Assay: NCI In Vivo Anticancer Drug Screen. Data for tumor model Mammary Adenocarcinoma CD8F1 (subcutaneous) in CD8F1
Details: higher = larger tumour
How it was run: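 Antitumor activity is assessed in transplantable-tumor mice by comparing the treated group with a vehicle-treated control group. Survival or tumor size serves as the measure, reported as T divided by C.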

[1] = endpoint: median tumor weight change, dose: 31.0 mg/kg/injection, schedule: Q01DX001 (ip), vehicle: distilled water + Tween-80
[2] = endpoint: median tumor weight change, dose: 31.25 mg/kg/injection, schedule: Q01DX001 (ip), vehicle: Klucel (hydroxypropylcellulose) (HPC)
[3] = endpoint: median tumor weight change, dose: 62.5 mg/kg/injection, schedule: Q01DX001 (ip), vehicle: Klucel (hydroxypropylcellulose) (HPC)
[4] = endpoint: median tumor weight change, dose: 125.0 mg/kg/injection, schedule: Q01DX001 (ip), vehicle: Klucel (hydroxypropylcellulose) (HPC)

COc1ccc2c(c1)CCn1c(C)c(COC(=O)NC(C)C)c(COC(=O)NC(C)C)c1-2
T/C (endpoint: median tumor weight change, dose: 15.62 mg/kg/injection, schedule: Q01DX001 (ip), vehicle: distilled water + Tween-80): 107 % of control | T/C [1]: 106 % of control | T/C (endpoint: median tumor weight change, dose: 31.25 mg/kg/injection, schedule: Q01DX001 (ip), vehicle: distilled water + Tween-80): 109 % of control and 114 % of control | T/C (endpoint: median tumor weight change, dose: 62.0 mg/kg/injection, schedule: Q01DX001 (ip), vehicle: distilled water + Tween-80): 58 % of control | T/C (endpoint: median tumor weight change, dose: 250.0 mg/kg/injection, schedule: Q01DX001 (ip), vehicle: distilled water + Tween-80): 26 % of control

COc1ccc(C[C@H](N)C(=O)NC2C(CO)OC(n3cnc4c(N(C)C)ncnc43)C2O)cc1 (some centres not stated)
T/C (endpoint: median tumor weight (est.), dose: 48.0 mg/kg/injection, schedule: Q07DX005 (ip), vehicle: saline): 90 % of control | T/C (endpoint: median tumor weight (est.), dose: 96.0 mg/kg/injection, schedule: Q07DX005 (ip), vehicle: saline): 63 % of control | T/C (endpoint: median tumor weight (est.), dose: 192.0 mg/kg/injection, schedule: Q07DX005 (ip), vehicle: saline): 62 % of control | T/C (endpoint: median tumor weight (est.), dose: 384.0 mg/kg/injection, schedule: Q07DX005 (ip), vehicle: saline): 16 % of control

Oc1ccccc1C=NCCC[N-]CCCN=Cc1ccccc1O.[Co]
T/C (endpoint: median tumor weight (est.), dose: 12.5 mg/kg/injection, schedule: Q07DX005 (ip), vehicle: suspension in saline): 162 % of control | T/C (endpoint: median tumor weight (est.), dose: 25.0 mg/kg/injection, schedule: Q07DX005 (ip), vehicle: suspension in saline): 223 % of control | T/C (endpoint: median tumor weight (est.), dose: 50.0 mg/kg/injection, schedule: Q07DX005 (ip), vehicle: suspension in saline): 180 % of control | T/C (endpoint: median tumor weight (est.), dose: 100.0 mg/kg/injection, schedule: Q07DX005 (ip), vehicle: suspension in saline): 97 % of control

COc1ccc2nc3cc(Cl)ccc3c(NCCNCCNCCNc3c4ccc(Cl)cc4nc4ccc(OC)cc34)c2c1
T/C (endpoint: median tumor weight (est.), dose: 12.5 mg/kg/injection, schedule: Q07DX005 (ip), vehicle: saline with Tween-80): 86 % of control and 108 % of control | T/C (endpoint: median tumor weight (est.), dose: 25.0 mg/kg/injection, schedule: Q07DX005 (ip), vehicle: saline with Tween-80): 68 % of control | T/C (endpoint: median tumor weight (est.), dose: 50.0 mg/kg/injection, schedule: Q07DX005 (ip), vehicle: saline with Tween-80): 88 % of control

CCCCNC(C)C1(O)Cc2c(O)c3c(c(O)c2C(OC2CC(N)C(O)C(C)O2)C1)C(=O)c1c(OC)cccc1C3=O (configuration not stated)
T/C (endpoint: median tumor weight (est.), dose: 28.5 mg/kg/injection, schedule: Q07DX005 (ip), vehicle: water): 100 % of control | T/C (endpoint: median tumor weight (est.), dose: 42.7 mg/kg/injection, schedule: Q07DX005 (ip), vehicle: water): 154 % of control | T/C (endpoint: median tumor weight (est.), dose: 64.0 mg/kg/injection, schedule: Q07DX005 (ip), vehicle: water): 66 % of control | T/C (endpoint: median tumor weight (est.), dose: 96.0 mg/kg/injection, schedule: Q07DX005 (ip), vehicle: water): 20 % of control | T/C (endpoint: median tumor weight change, dose: 62.5 mg/kg/injection, schedule: Q01DX001 (ip), vehicle: suspension in saline): 98 % of control | T/C (endpoint: median tumor weight change, dose: 125.0 mg/kg/injection, schedule: Q01DX001 (ip), vehicle: suspension in saline): 65 % of control | T/C (endpoint: median tumor weight change, dose: 250.0 mg/kg/injection, schedule: Q01DX001 (ip), vehicle: suspension in saline): 74 % of control | T/C (endpoint: median tumor weight change, dose: 500.0 mg/kg/injection, schedule: Q01DX001 (ip), vehicle: suspension in saline): 15 % of control | T/C (endpoint: median tumor weight change, dose: 1000.0 mg/kg/injection, schedule: Q01DX001 (ip), vehicle: suspension in saline): 3 % of control

COc1cc2cc(c1Cl)N(C)C(=O)CC(OC(=O)CC(C)C)C1(C)OC1C(C)C1CC(O)(NC(=O)O1)C(OC)/C=C/C=C(C)C2 (configuration not stated)
T/C (endpoint: median tumor weight (est.), dose: 18.7 micrograms/kg/injection, schedule: Q07DX005 (ip), vehicle: saline + alcohol): 76 % of control | T/C (endpoint: median tumor weight (est.), dose: 37.5 micrograms/kg/injection, schedule: Q07DX005 (ip), vehicle: saline + alcohol): 80 % of control | T/C (endpoint: median tumor weight (est.), dose: 75.0 micrograms/kg/injection, schedule: Q07DX005 (ip), vehicle: saline + alcohol): 85 % of control

OC1CCCC2CCC[N-]C12.OC1CCCC2CCC[N-]C12.[Mn+2] (configuration not stated)
T/C (endpoint: median tumor weight (est.), dose: 12.5 mg/kg/injection, schedule: Q07DX005 (ip), vehicle: Klucel (hydroxypropylcellulose) (HPC)): 83 % of control | T/C (endpoint: median tumor weight (est.), dose: 25.0 mg/kg/injection, schedule: Q07DX005 (ip), vehicle: Klucel (hydroxypropylcellulose) (HPC)): 94 % of control | T/C (endpoint: median tumor weight (est.), dose: 50.0 mg/kg/injection, schedule: Q07DX005 (ip), vehicle: Klucel (hydroxypropylcellulose) (HPC)): 81 % of control | T/C (endpoint: median tumor weight (est.), dose: 100.0 mg/kg/injection, schedule: Q07DX005 (ip), vehicle: Klucel (hydroxypropylcellulose) (HPC)): 67 % of control | T/C (endpoint: median tumor weight (est.), dose: 200.0 mg/kg/injection, schedule: Q07DX005 (ip), vehicle: Klucel (hydroxypropylcellulose) (HPC)): 43 % of control

C#CCNC1=C(C)C(=O)C2=C(C1=O)[C@H](COC(N)=O)[C@]1(OC)[C@@H]3N[C@@H]3CN21
T/C (endpoint: median tumor weight change, dose: 16.0 mg/kg/injection, schedule: Q01DX001 (ip), vehicle: distilled water + Tween-80): 75 % of control | T/C [1]: 27 % of control

O=c1nc(-c2ccco2)sc(=O)[nH]1
T/C [2]: 123 % of control | T/C [3]: 63 % of control | T/C [4]: 120 % of control | T/C (endpoint: median tumor weight change, dose: 250.0 mg/kg/injection, schedule: Q01DX001 (ip), vehicle: Klucel (hydroxypropylcellulose) (HPC)): 53 % of control

O=C(CC(=O)C(F)(F)F)c1csc2ccccc12
T/C [2]: 35 % of control | T/C [3]: 39 % of control | T/C [4]: 65 % of control
